Reference: US10807959B2, “WDR5-MLL1 inhibitors and modulators” (Vanderbilt University, priority 2018, dated 2020)

Target: WDR5 (Homo sapiens (Human), UniProt P61964)
Test: TR-FRET binding assay, displacement of 10mer-Thr-FAM probe from His-tagged WDR5
Settings: Inhibition of WDR5 by TR-FRET assay
Procedure: The LanthaScreenTM Elite Tb-anti-HIS Antibody from ThermoFisher Scientific was used for this purpose. […] The ratio of the 520 and 495 signals are then utilized to generate a dose-response curve to calculate an IC50 value. […] WDR[…] tag protein is used at 2 nM.

| Structure (SMILES) | Ki [nM] |
| --- | --- |
| COc1cc(OC)cc(C(C)NC(=O)c2cc(CNC3=NCCN3)cc(-c3ccc(F)cc3C)c2)c1 (racemic) [Example 1, (±)-5-(((4,5-dihydro-1H-imidazol-2-yl)amino)methyl)-N-(1-(3,5-dimethoxyphenyl)ethyl)-4′-fluoro-2′-methyl-[1,1′-biphenyl]-3-carboxamide] | 0.46 |
| COc1ccc(CNC(=O)c2cc(CNC3=NCCN3)cc(-c3ccc(F)nc3C)c2)cc1OC [Example 4, 3-(((4,5-Dihydro-1H-imidazol-2-yl)amino)methyl)-N-(3,4-dimethoxybenzyl)-5-(6-fluoro-2-methylpyridin-3-yl)benzamide] | 0.36 |
| Cc1cc(CNC(=O)c2cc(CNC3=NCCN3)cc(-c3ccc(F)nc3C)c2)ccc1Cl [Example 5, N-(4-chloro-3-methylbenzyl)-3-(((4,5-dihydro-1H-imidazol-2-yl)amino)methyl)-5-(6-fluoro-2-methylpyridin-3-yl)benzamide] | 0.02 |
| Cc1cc(C)cc(CNC(=O)c2cc(CNC3=NCCN3)cc(-c3ccc(F)nc3C)c2)c1 [Example 6, 3-(((4,5-Dihydro-1H-imidazol-2-yl)amino)methyl)-N-(3,5-dimethylbenzyl)-5-(6-fluoro-2-methylpyridin-3-yl)benzamide] | 0.14 |
| COc1cc(CN(C)C(=O)c2cc(CNC3=NCCN3)cc(-c3ccc(F)nc3C)c2)cc(OC)c1 [Example 8, 3-(((4,5-Dihydro-1H-imidazol-2-yl)amino)methyl)-N-(3,5-dimethoxybenzyl)-5-(6-fluoro-2-methylpyridin-3-yl)-N-methylbenzamide] | 12 |
| Cc1ccnc(C(NC(=O)c2cc(CNC3=NCCN3)cc(-c3ccc(F)nc3C)c2)C2CC2)c1 (stereo not shown) [Example 9, N-(Cyclopropyl(4-methylpyridin-2-yl)methyl)-3-(((4,5-dihydro-1H-imidazol-2-yl)amino)methyl)-5-(6-fluoro-2-methylpyridin-3-yl)benzamide] | < 0.1 |
| Cc1nc(F)ccc1-c1cc(CNC2=NCCN2)cc(C(=O)NC(C2CC2)C2CC2)c1 [Example 10, N-(dicyclopropylmethyl)-3-(((4,5-dihydro-1H-imidazol-2-yl)amino)methyl)-5-(6-fluoro-2-methylpyridin-3-yl)benzamide] | 2.9 |
| COc1ccnc(CNC(=O)c2cc(CNC3=NCCN3)cc(-c3ccc(F)nc3C)c2)c1 [Example 11, 3-(((4,5-Dihydro-1H-imidazol-2-yl)amino)methyl)-5-(6-fluoro-2-methylpyridin-3-yl)-N-((4-methoxypyridin-2-yl)methyl)benzamide] | 0.22 |
| Cc1ccncc1-c1cc(CNC2=NCCN2)cc(C(=O)NCc2ccc(Cl)c(Cl)c2)c1 [Example 12, N-(3,4-dichlorobenzyl)-3-(((4,5-dihydro-1H-imidazol-2-yl)amino)methyl)-5-(4-methylpyridin-3-yl)benzamide] | < 0.1 |
| COc1cc(CNC(=O)c2cc(CNC3=NCCN3)cc(-c3cnccc3C)c2)cc(OC)c1 [Example 13, 3-(((4,5-dihydro-1H-imidazol-2-yl)amino)methyl)-N-(3,5-dimethoxybenzyl)-5-(4-methylpyridin-3-yl)benzamide] | 0.53 |
| COc1ccc(CNC(=O)c2cc(CNC3=NCCN3)cc(-c3cnccc3C)c2)cc1Cl [Example 14, N-(3-chloro-4-methoxybenzyl)-3-(((4,5-dihydro-1H-imidazol-2-yl)amino)methyl)-5-(4-methylpyridin-3-yl)benzamide] | 0.74 |
| COc1ccc(CNC(=O)c2cc(CNC3=NCCN3)cc(-c3ccnc(C)c3)c2)cc1OC [Example 15, 3-(((4,5-dihydro-1H-imidazol-2-yl)amino)methyl)-N-(3,4-dimethoxybenzyl)-5-(2-methylpyridin-4-yl)benzamide] | 1.7 |
| Cc1cc(-c2cc(CNC3=NCCN3)cc(C(=O)NCc3cc(F)cc(Cl)c3)c2)ccn1 [Example 16, N-(3-chloro-5-fluorobenzyl)-3-(((4,5-dihydro-1H-imidazol-2-yl)amino)methyl)-5-(2-methylpyridin-4-yl)benzamide] | 0.52 |
